From ChEMBL document CHEMBL1150515, “Synthesis and structure-activity relationships of novel THF 1-methylcarbapenems II” (1997)
Converted amounts (≈) assume the structure as drawn.

Tested on: Acinetobacter calcoaceticus
Experiment: Antimicrobial activity against Acinetobacter calcoaceticus (GC 756)
Assay type: functional
Settings: not given

SMILES	MIC [µg/mL]
C[C@@H](O)[C@H]1C(=O)N2C(C(=O)[O-])=C(SC3COC(C/N=C/N(C)C)C3)[C@H](C)[C@H]12.[Na+] (some centres undefined)	16
C[C@@H](N)C(=O)NC[C@H]1OCC[C@H]1SC1=C(C(=O)[O-])N2C(=O)[C@H]([C@@H](C)O)[C@H]2[C@H]1C.[Na+]	8
C[C@@H](O)[C@H]1C(=O)N2C(C(=O)O)=C(SCCNC=N)C[C@H]12 [IMIPENEM ANHYDROUS]	0.25 (≈ 0.835 µM)
CC(=O)NC[C@H]1OCC[C@H]1SC1=C(C(=O)[O-])N2C(=O)[C@H]([C@@H](C)O)[C@H]2[C@H]1C.[Na+]	16

Tested on: not listed separately
Experiment: Antimicrobial activity against Citrobacter freundii (GC 2211)
Assay type: functional
Settings: not given

SMILES	MIC [µg/mL]
C[C@@H](O)[C@H]1C(=O)N2C(C(=O)[O-])=C(SC3COC(C/N=C/N(C)C)C3)[C@H](C)[C@H]12.[Na+] (some centres undefined)	0.5
C[C@@H](N)C(=O)NC[C@H]1OCC[C@H]1SC1=C(C(=O)[O-])N2C(=O)[C@H]([C@@H](C)O)[C@H]2[C@H]1C.[Na+]	1
C[C@@H](O)[C@H]1C(=O)N2C(C(=O)O)=C(SCCNC=N)C[C@H]12 [IMIPENEM ANHYDROUS]	0.25 (≈ 0.835 µM)
CC(=O)NC[C@H]1OCC[C@H]1SC1=C(C(=O)[O-])N2C(=O)[C@H]([C@@H](C)O)[C@H]2[C@H]1C.[Na+]	2

Molecular target: T1, Dipeptidase 1 (Sus scrofa) (UniProt P22412)
T1 sequence (whole entry): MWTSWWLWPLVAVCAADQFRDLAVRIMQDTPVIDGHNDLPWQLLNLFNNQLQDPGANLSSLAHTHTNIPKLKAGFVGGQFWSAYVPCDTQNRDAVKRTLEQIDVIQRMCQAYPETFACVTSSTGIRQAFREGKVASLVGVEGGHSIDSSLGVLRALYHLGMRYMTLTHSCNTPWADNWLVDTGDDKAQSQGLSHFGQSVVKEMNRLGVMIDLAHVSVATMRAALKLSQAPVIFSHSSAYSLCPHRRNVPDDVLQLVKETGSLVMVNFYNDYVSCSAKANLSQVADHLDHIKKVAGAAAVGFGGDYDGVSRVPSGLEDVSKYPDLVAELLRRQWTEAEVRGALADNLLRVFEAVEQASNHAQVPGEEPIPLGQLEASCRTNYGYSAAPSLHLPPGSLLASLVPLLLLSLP
Experiment: Relative hydrolysis to that of imipenem was determined by hog renal dehydropeptidase
Settings: not given

SMILES	Relative hydrolysis
C[C@@H](N)C(=O)NC[C@H]1OCC[C@H]1SC1=C(C(=O)[O-])N2C(=O)[C@H]([C@@H](C)O)[C@H]2[C@H]1C.[Na+]	3
C[C@@H](O)[C@H]1C(=O)N2C(C(=O)O)=C(SCCNC=N)C[C@H]12 [IMIPENEM ANHYDROUS]	100
CC(=O)NC[C@H]1OCC[C@H]1SC1=C(C(=O)[O-])N2C(=O)[C@H]([C@@H](C)O)[C@H]2[C@H]1C.[Na+]	4

Tested on: not listed separately
Experiment: Antimicrobial activity against Enterococcus faecium (GC 1182)
Assay type: functional
Settings: not given

SMILES	MIC [µg/mL]
C[C@@H](O)[C@H]1C(=O)N2C(C(=O)[O-])=C(SC3COC(C/N=C/N(C)C)C3)[C@H](C)[C@H]12.[Na+] (some centres undefined)	> 128
C[C@@H](N)C(=O)NC[C@H]1OCC[C@H]1SC1=C(C(=O)[O-])N2C(=O)[C@H]([C@@H](C)O)[C@H]2[C@H]1C.[Na+]	> 128
C[C@@H](O)[C@H]1C(=O)N2C(C(=O)O)=C(SCCNC=N)C[C@H]12 [IMIPENEM ANHYDROUS]	64 (≈ 214 µM)
CC(=O)NC[C@H]1OCC[C@H]1SC1=C(C(=O)[O-])N2C(=O)[C@H]([C@@H](C)O)[C@H]2[C@H]1C.[Na+]	> 128

Tested on: not listed separately
Experiment: Antimicrobial activity against Enterobacter cloacae (GC 2209)
Assay type: functional
Settings: not given

SMILES	MIC [µg/mL]
C[C@@H](O)[C@H]1C(=O)N2C(C(=O)[O-])=C(SC3COC(C/N=C/N(C)C)C3)[C@H](C)[C@H]12.[Na+] (some centres undefined)	0.12
C[C@@H](N)C(=O)NC[C@H]1OCC[C@H]1SC1=C(C(=O)[O-])N2C(=O)[C@H]([C@@H](C)O)[C@H]2[C@H]1C.[Na+]	0.25
C[C@@H](O)[C@H]1C(=O)N2C(C(=O)O)=C(SCCNC=N)C[C@H]12 [IMIPENEM ANHYDROUS]	≤ 0.06
CC(=O)NC[C@H]1OCC[C@H]1SC1=C(C(=O)[O-])N2C(=O)[C@H]([C@@H](C)O)[C@H]2[C@H]1C.[Na+]	0.5

Tested on: not listed separately
Experiment: Antimicrobial activity against Enterococcus faecalis (GC 842)
Assay type: functional
Settings: not given

SMILES	MIC [µg/mL]
C[C@@H](O)[C@H]1C(=O)N2C(C(=O)[O-])=C(SC3COC(C/N=C/N(C)C)C3)[C@H](C)[C@H]12.[Na+] (some centres undefined)	8
C[C@@H](N)C(=O)NC[C@H]1OCC[C@H]1SC1=C(C(=O)[O-])N2C(=O)[C@H]([C@@H](C)O)[C@H]2[C@H]1C.[Na+]	2
C[C@@H](O)[C@H]1C(=O)N2C(C(=O)O)=C(SCCNC=N)C[C@H]12 [IMIPENEM ANHYDROUS]	1 (≈ 3.34 µM)
CC(=O)NC[C@H]1OCC[C@H]1SC1=C(C(=O)[O-])N2C(=O)[C@H]([C@@H](C)O)[C@H]2[C@H]1C.[Na+]	8

Tested on: Escherichia coli
Experiment: Antimicrobial activity against Escherichia coli (ATCC 25922)
Assay type: functional
Settings: not given

SMILES	MIC [µg/mL]
C[C@@H](O)[C@H]1C(=O)N2C(C(=O)[O-])=C(SC3COC(C/N=C/N(C)C)C3)[C@H](C)[C@H]12.[Na+] (some centres undefined)	0.12
C[C@@H](N)C(=O)NC[C@H]1OCC[C@H]1SC1=C(C(=O)[O-])N2C(=O)[C@H]([C@@H](C)O)[C@H]2[C@H]1C.[Na+]	≤ 0.06
C[C@@H](O)[C@H]1C(=O)N2C(C(=O)O)=C(SCCNC=N)C[C@H]12 [IMIPENEM ANHYDROUS]	0.12 (≈ 0.401 µM)
CC(=O)NC[C@H]1OCC[C@H]1SC1=C(C(=O)[O-])N2C(=O)[C@H]([C@@H](C)O)[C@H]2[C@H]1C.[Na+]	≤ 0.06

Tested on: Escherichia coli
Experiment: Antimicrobial activity against Escherichia coli (GC 1792)
Assay type: functional
Settings: not given

SMILES	MIC [µg/mL]
C[C@@H](O)[C@H]1C(=O)N2C(C(=O)[O-])=C(SC3COC(C/N=C/N(C)C)C3)[C@H](C)[C@H]12.[Na+] (some centres undefined)	0.12
C[C@@H](N)C(=O)NC[C@H]1OCC[C@H]1SC1=C(C(=O)[O-])N2C(=O)[C@H]([C@@H](C)O)[C@H]2[C@H]1C.[Na+]	0.12
C[C@@H](O)[C@H]1C(=O)N2C(C(=O)O)=C(SCCNC=N)C[C@H]12 [IMIPENEM ANHYDROUS]	≤ 0.06
CC(=O)NC[C@H]1OCC[C@H]1SC1=C(C(=O)[O-])N2C(=O)[C@H]([C@@H](C)O)[C@H]2[C@H]1C.[Na+]	0.12

Tested on: Escherichia coli
Experiment: Antimicrobial activity against Escherichia coli (GC 2205)
Assay type: functional
Settings: not given

SMILES	MIC [µg/mL]
C[C@@H](O)[C@H]1C(=O)N2C(C(=O)[O-])=C(SC3COC(C/N=C/N(C)C)C3)[C@H](C)[C@H]12.[Na+] (some centres undefined)	0.12
C[C@@H](N)C(=O)NC[C@H]1OCC[C@H]1SC1=C(C(=O)[O-])N2C(=O)[C@H]([C@@H](C)O)[C@H]2[C@H]1C.[Na+]	≤ 0.06
C[C@@H](O)[C@H]1C(=O)N2C(C(=O)O)=C(SCCNC=N)C[C@H]12 [IMIPENEM ANHYDROUS]	0.12 (≈ 0.401 µM)
CC(=O)NC[C@H]1OCC[C@H]1SC1=C(C(=O)[O-])N2C(=O)[C@H]([C@@H](C)O)[C@H]2[C@H]1C.[Na+]	≤ 0.06

Tested on: not listed separately
Experiment: Antimicrobial activity against Morganella morganii (GC 2213)
Assay type: functional
Settings: not given

SMILES	MIC [µg/mL]
C[C@@H](O)[C@H]1C(=O)N2C(C(=O)[O-])=C(SC3COC(C/N=C/N(C)C)C3)[C@H](C)[C@H]12.[Na+] (some centres undefined)	2
C[C@@H](N)C(=O)NC[C@H]1OCC[C@H]1SC1=C(C(=O)[O-])N2C(=O)[C@H]([C@@H](C)O)[C@H]2[C@H]1C.[Na+]	1
C[C@@H](O)[C@H]1C(=O)N2C(C(=O)O)=C(SCCNC=N)C[C@H]12 [IMIPENEM ANHYDROUS]	1 (≈ 3.34 µM)
CC(=O)NC[C@H]1OCC[C@H]1SC1=C(C(=O)[O-])N2C(=O)[C@H]([C@@H](C)O)[C@H]2[C@H]1C.[Na+]	0.5

Tested on: Pseudomonas aeruginosa
Experiment: Antimicrobial activity against Pseudomonas aeruginosa (ATCC 27853)
Assay type: functional
Settings: not given

SMILES	MIC [µg/mL]
C[C@@H](O)[C@H]1C(=O)N2C(C(=O)[O-])=C(SC3COC(C/N=C/N(C)C)C3)[C@H](C)[C@H]12.[Na+] (some centres undefined)	16
C[C@@H](N)C(=O)NC[C@H]1OCC[C@H]1SC1=C(C(=O)[O-])N2C(=O)[C@H]([C@@H](C)O)[C@H]2[C@H]1C.[Na+]	64
C[C@@H](O)[C@H]1C(=O)N2C(C(=O)O)=C(SCCNC=N)C[C@H]12 [IMIPENEM ANHYDROUS]	1 (≈ 3.34 µM)
CC(=O)NC[C@H]1OCC[C@H]1SC1=C(C(=O)[O-])N2C(=O)[C@H]([C@@H](C)O)[C@H]2[C@H]1C.[Na+]	128

Tested on: Pseudomonas aeruginosa
Experiment: Antimicrobial activity against Pseudomonas aeruginosa (GC 1544 OprD)
Assay type: functional
Settings: not given

SMILES	MIC [µg/mL]
C[C@@H](O)[C@H]1C(=O)N2C(C(=O)[O-])=C(SC3COC(C/N=C/N(C)C)C3)[C@H](C)[C@H]12.[Na+] (some centres undefined)	32
C[C@@H](N)C(=O)NC[C@H]1OCC[C@H]1SC1=C(C(=O)[O-])N2C(=O)[C@H]([C@@H](C)O)[C@H]2[C@H]1C.[Na+]	64
C[C@@H](O)[C@H]1C(=O)N2C(C(=O)O)=C(SCCNC=N)C[C@H]12 [IMIPENEM ANHYDROUS]	16 (≈ 53.4 µM)
CC(=O)NC[C@H]1OCC[C@H]1SC1=C(C(=O)[O-])N2C(=O)[C@H]([C@@H](C)O)[C@H]2[C@H]1C.[Na+]	> 128

Tested on: Staphylococcus aureus
Experiment: Antimicrobial activity against Staphylococcus aureus (ATCC 29213)
Assay type: functional
Settings: not given

SMILES	MIC [µg/mL]
C[C@@H](O)[C@H]1C(=O)N2C(C(=O)[O-])=C(SC3COC(C/N=C/N(C)C)C3)[C@H](C)[C@H]12.[Na+] (some centres undefined)	0.12
C[C@@H](N)C(=O)NC[C@H]1OCC[C@H]1SC1=C(C(=O)[O-])N2C(=O)[C@H]([C@@H](C)O)[C@H]2[C@H]1C.[Na+]	≤ 0.06
C[C@@H](O)[C@H]1C(=O)N2C(C(=O)O)=C(SCCNC=N)C[C@H]12 [IMIPENEM ANHYDROUS]	≤ 0.06
CC(=O)NC[C@H]1OCC[C@H]1SC1=C(C(=O)[O-])N2C(=O)[C@H]([C@@H](C)O)[C@H]2[C@H]1C.[Na+]	0.12

Tested on: Staphylococcus aureus
Experiment: Antimicrobial activity against methicillin - resistant Staphylococcus aureus (GC 2220)
Assay type: functional
Settings: not given

SMILES	MIC [µg/mL]
C[C@@H](O)[C@H]1C(=O)N2C(C(=O)[O-])=C(SC3COC(C/N=C/N(C)C)C3)[C@H](C)[C@H]12.[Na+] (some centres undefined)	16
C[C@@H](N)C(=O)NC[C@H]1OCC[C@H]1SC1=C(C(=O)[O-])N2C(=O)[C@H]([C@@H](C)O)[C@H]2[C@H]1C.[Na+]	8
C[C@@H](O)[C@H]1C(=O)N2C(C(=O)O)=C(SCCNC=N)C[C@H]12 [IMIPENEM ANHYDROUS]	1 (≈ 3.34 µM)
CC(=O)NC[C@H]1OCC[C@H]1SC1=C(C(=O)[O-])N2C(=O)[C@H]([C@@H](C)O)[C@H]2[C@H]1C.[Na+]	16

Tested on: not listed separately
Experiment: Antimicrobial activity against Xanthomonas maltophilia (GC 562)
Assay type: functional
Settings: Stenotrophomonas maltophilia

SMILES	MIC [µg/mL]
C[C@@H](O)[C@H]1C(=O)N2C(C(=O)[O-])=C(SC3COC(C/N=C/N(C)C)C3)[C@H](C)[C@H]12.[Na+] (some centres undefined)	> 128
C[C@@H](N)C(=O)NC[C@H]1OCC[C@H]1SC1=C(C(=O)[O-])N2C(=O)[C@H]([C@@H](C)O)[C@H]2[C@H]1C.[Na+]	> 128
C[C@@H](O)[C@H]1C(=O)N2C(C(=O)O)=C(SCCNC=N)C[C@H]12 [IMIPENEM ANHYDROUS]	> 128
CC(=O)NC[C@H]1OCC[C@H]1SC1=C(C(=O)[O-])N2C(=O)[C@H]([C@@H](C)O)[C@H]2[C@H]1C.[Na+]	> 128
